Values quoted from earlier work in patent US20080175905A1, “ESTROGEN/SERM AND ESTROGEN/PROGESTIN BI-LAYER TABLETS” (Wyeth, priority 2006, published 2008).

Assays:
uterine response = conditions: preclinical models of uterine stimulation
[1] = test system: MCF-7 cell line (human breast cancer cell line); conditions: MCF-7 human breast cancer cell line
[2] = test system: ovariectomized rat model of osteopenia

For `Cc1c(-c2ccc(O)cc2)n(Cc2ccc(OCCN3CCCCCC3)cc2)c2ccc(O)cc12` [bazedoxifene acetate, 1-[4-(2-azepan-1-yl-ethoxy)-benzyl]-2-(4-hydroxy-phenyl)-3-methyl-1H-indol-5-ol acetic acid], the “stimulation of uterine response” value (uterine response) is given as “little or no stimulation of uterine response”, the “estrogen antagonist behaviour in MCF-7 cell line” value [1] is given as “behaves as an estrogen antagonist” and the preventing bone loss [2] is given as “estrogen agonist-like effect”. The reducing cholesterol [2] was “estrogen agonist-like effect”.
